Laboratory results from US6858217B2, “Stabilization of terpenoids in cosmetic compositions” (Unilever Home & Personal Care USA division of Conopco, Inc., priority 2002, dated 2005).

Experiments:
[1] = Storage stability of linalool in skin lotion, GC/HS; details: for initial GC/HS: skin lotion with 1.0% fragrance (linalool 20%)
Text: (§1) The stability of terpenoid components of typical fragrances was examined in skin care formulations containing 4-substituted resorcinol derivatives to determine the resorcinol's effectiveness toward preventing degradation and loss of terpenoid upon storage. Two terpenoid components, limonene and linalool, were formulated as part of a fragrance in standard skin care lotions containing BHT (a standard antioxidant), unsubstituted resorcinol, 4-ethyl resorcinol and 4-hexyl resorcinol. The stability of these fragrance components was measured using GC/HS analysis to determine the loss of each terpenoid molecule with time as stored under typical consumer product storage conditions storage (5-month storage at 40° C. and in the sun at Room Temperature [RT]). The loss of limonene and linalool in a standard formulation containing no “anti-oxidants” was directly compared to loss of these materials with both BHT, unsubstituted resorcinol and the 4-substituted resorcinol derivatives.
(§2) With reference to the data in the Tables below, GC/HS measurements were taken on an Agilent 6890 GC/5973 MS using a Gerstel MPS2 Headspace Sampler. The samples were incubated at 35° C. for one hour and then 2.50 mL of the headspace above the sample was injected onto a Agilent Technologies number 19091S-433, HP-5MS, 5% Phenyl Methyl Siloxane column which has a 30 m×0.25 mm ID with a 0.25 μm film thickness. The GC data is recorded as peak area count for the two fragrance components.
(§3) The formulations in the Table below were prepared in accordance with the method set forth in Example 1 hereinabove.

[2] = Storage stability of limonene in skin lotion, GC/HS; details: for initial GC/HS: skin lotion with 1.0% fragrance (limonene 20%)
Text: as §1, §2, §3

[3] = Overall stabilization of terpenoid fragrance components in skin lotion; assay type: physicochemical; details: limonene and linalool in skin lotions, 5-month storage (sun RT, 40° C.)
Text: In most cases, the “control” formulation without anti-oxidants or the control with the unsubstituted resorcinol lost twice as much limonene and/or linalool as those formulations containing the 4-substituted resorcinols.

[4] = 5-month storage in the sun at RT

SMILES | 40° C. 5-months GC/HS ([1]; 5-month storage at 40° C.) [peak area count] | 40° C. % Loss ([1]; 5-month storage at 40° C.) [%] | Sun 5-months GC/HS [1, 4] [peak area count] | Sun % Loss [1, 4] [%] | initial GC/HS [1] [peak area count] | 40° C. 5-months GC/HS ([2]; 5-month storage at 40° C.) [peak area count] | 40° C. % Loss ([2]; 5-month storage at 40° C.) [%] | Sun 5-months GC/HS [2, 4] [peak area count] | Sun % Loss [2, 4] [%] | initial GC/HS [2] [peak area count] | stabilizing terpenoid molecules against degradation [3] | 40° C. % Stabilization ([1]; 5-month storage at 40° C.) [%] | Sun % Stabilization [1, 4] [%] | 40° C. % Stabilization ([2]; 5-month storage at 40° C.) [%] | Sun % Stabilization [2, 4] [%]
Oc1cccc(O)c1 [Resorcinol] | 4286137 | 29.6 | 3856563 | 36.7 | 6088780 | 19260141 | 57.6 | 25743642 | 43.4 | 45478209 | little to no stabilization |  |  |  | 
Cc1cc(C(C)(C)C)c(O)c(C(C)(C)C)c1 [BHT Sample, BHT] | 4918953 | 28.2 | 4678449 | 31.4 | 6853529 | 26286287 | 31.7 | 32465677 | 15.3 | 38342803 |  | 29 | 16.5 | 35 | 48
CCc1ccc(O)cc1O [4-EthylResorcinol, 4-ethyl resorcinol] | 2292953 | 30.2 | 2650924 | 19.4 | 3288967 | 46790409 | 12.9 | 54753996 | 0 | 54736538 |  |  |  |  | 
CCCCCCc1ccc(O)cc1O [4-HexylResorcinol, 4-hexyl resorcinol] | 1466948 | 10.2 | 1666185 | 7.5 | 2222930 | 3381932 | 18.5 | 34662250 | 7.7 | 40778538 |  |  |  |  | 
